# Patent US10053451B2, “Heterocyclic estrogen receptor modulators and uses thereof” (priority 2015, dated 2018)
# Target: T1, estrogen receptor alpha (ESR1) (Homo sapiens, UniProt P03372)
# T1 construct: MCF7 cells were trypsinized and washed twice; endogenous in cells; host or cells: MCF7 breast cancer cells
# T1 sequence (P03372 1-595): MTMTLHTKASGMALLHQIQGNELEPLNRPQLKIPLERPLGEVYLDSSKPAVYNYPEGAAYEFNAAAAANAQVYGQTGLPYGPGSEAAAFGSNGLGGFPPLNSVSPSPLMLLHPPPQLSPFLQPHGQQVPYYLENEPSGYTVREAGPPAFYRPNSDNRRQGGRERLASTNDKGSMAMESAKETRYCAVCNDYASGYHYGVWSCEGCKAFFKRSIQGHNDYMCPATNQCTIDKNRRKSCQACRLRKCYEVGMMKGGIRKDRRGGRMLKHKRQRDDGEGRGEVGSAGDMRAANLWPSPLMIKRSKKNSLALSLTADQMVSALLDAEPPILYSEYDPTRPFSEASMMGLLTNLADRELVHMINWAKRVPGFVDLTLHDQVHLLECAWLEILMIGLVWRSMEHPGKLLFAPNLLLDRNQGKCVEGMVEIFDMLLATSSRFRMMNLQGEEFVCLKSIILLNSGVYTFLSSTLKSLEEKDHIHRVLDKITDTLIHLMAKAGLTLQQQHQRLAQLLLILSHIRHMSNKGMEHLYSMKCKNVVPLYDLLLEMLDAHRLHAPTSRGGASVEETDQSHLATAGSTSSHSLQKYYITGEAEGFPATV
# Assay: Breast Cancer Cell ERa High Content Fluorescence Imaging Assay (ER-alpha MCF7 Assay)
# Assay type: cell-based
# Conditions: MCF7 cells, 4 hours; plateau of maximal effect; DMSO = 0%, 5 nM Fulvestrant = 100% change in ESR1
# Procedure: Cell plates were incubated at 37° C., for 4 hours. Fixation and permeabilization were carried out using a Biotek EL406 plate washer and dispenser as follows. […] Samples were incubated 30 minutes. Well contents was aspirated and 50 uL/well of Phosphate Buffered Saline (PBS) containing 0.5% w/v bovine serum albumen, 0.5% v/v Triton X-100 (Antibody Dilution Buffer) was added to each well. Samples were incubated for 30 minutes. Well contents were aspirated and washed 3 times with 100 uL/well of PBS. Immunofluorescence staining of estrogen receptor alpha (ESR1) was carried out using a Biotek EL406 plate washer and dispenser as follows. […] Samples were incubated for 2 hours at room temperature. Samples were washed 4 times with 100 uL/well of PBS. […] Samples were incubated for 2 hours at room temperature. Samples were washed 3 times with 100 uL/well of PBS using a Biotek EL406. Quantitative fluorescence imaging of ESR1 was carried out using a Cellomics Arrayscan V (Thermo). […] Channel 1 (DNA stain) was used to define the nuclear region (Circ). […] The “Robust Fit” method was used to define the inflexion point of curve (EC50) and the plateau of the maximal effect (Sinf).
row,SMILES,ER-alpha MCF7 Sinf (%)
1,"CC1=C(C2=CCC(F)(F)CC2)C(c2ccc(OCCN3CC(CF)C3)cc2)Oc2ccc(O)cc21 (stereo not drawn) [Example 26, 3-(4,4-difluorocyclohex-1-en-1-yl)-2-(4-(2-(3-(fluoromethyl)azetidin-1-yl)ethoxy)phenyl)-4-methyl-2H-chromen-6-ol]",97.1
2,"CNC(=O)N1CCC(C2=C(C)c3cc(O)ccc3OC2c2ccc(OCCN3CC(CF)C3)cc2)CC1 (stereo not drawn) [Example 31, 4-(2-(4-(2-(3-(fluoromethyl)azetidin-1-yl)ethoxy)phenyl)-6-hydroxy-4-methyl-2H-chromen-3-yl)-N-methylpiperidine-1-carboxamide]",85.9
3,"CC1=C(C2=CCC(O)CC2)C(c2ccc(OCCN3CC(CF)C3)cc2)Oc2ccc(O)cc21 (stereo not drawn) [Example 21, 2-(4-(2-(3-(Fluoromethyl)azetidin-1-yl)ethoxy)phenyl)-3-(4-hydroxycyclohex-1-en-1-yl)-4-methyl-2H-chromen-6-ol]",98.7
4,"CC1=C(c2cccc(O)c2)[C@H](c2cnn(CCCN3CC(CF)C3)c2)Oc2ccc(O)cc21 [Example 51, (R)-2-(1-(3-(3-(fluoromethyl)azetidin-1-yl)propyl)-1H-pyrazol-4-yl)-3-(3-hydroxyphenyl)-4-methyl-2H-chromen-6-ol]",94.7
5,"CC(C)=CC1=C(C)c2cc(O)ccc2OC1c1ccc(OCCN2CC(CF)C2)cc1 (stereo not drawn) [Example 16, 2-[4-[2-[3-(Fluoromethyl)azetidin-1-yl]ethoxy]phenyl]-4-methyl-3-(2-methylprop-1-enyl)-2H-chromen-6-ol]",93.9
6,"CC1=C(/C=C/CO)C(c2ccc(OCCN3CC(CF)C3)cc2)Oc2ccc(O)cc21 (stereo not drawn) [Example 52, 2-[4-[2-[3-(fluoromethyl)azetidin-1-yl]ethoxy]phenyl]-3-[(E)-3-hydroxyprop-1-enyl]-4-methyl-2H-chromen-6-ol]",97.3
7,"CC(=O)N1CCC(C2=C(C)c3cc(O)ccc3OC2c2ccc(OCCN3CC(CF)C3)cc2)C1 (stereo not drawn) [Example 19, 1-(3-(2-(4-(2-(3-(Fluoromethyl)azetidin-1-yl)ethoxy)phenyl)-6-hydroxy-4-methyl-2H-chromen-3-yl)pyrrolidin-1-yl)ethanone]",80
8,"CC1=C(CC(C)C)C(c2ccc(OCCN3CC(CF)C3)cc2)Oc2ccc(O)cc21 (stereo not drawn) [Example 17, 2-(4-(2-(3-(Fluoromethyl)azetidin-1-yl)ethoxy)phenyl)-3-isobutyl-4-methyl-2H-chromen-6-ol]",93.9
9,"CC1=C(C2CCC(O)C2)C(c2ccc(OCCN3CC(CF)C3)cc2)Oc2ccc(O)cc21 (stereo not drawn) [Example 46, 2-[4-[2-[3-(fluoromethyl)azetidin-1-yl]ethoxy]phenyl]-3-(3-hydroxycyclopentyl)-4-methyl-2H-chromen-6-ol]",98.3
10,"CC1=C(C2CCOCC2)C(c2ccc(OCCN3CC(CF)C3)cc2)Oc2ccc(O)cc21 (stereo not drawn) [Example 24, 2-(4-(2-(3-(fluoromethyl)azetidin-1-yl)ethoxy)phenyl)-4-methyl-3-(tetrahydro-2H-pyran-4-yl)-2H-chromen-6-ol]",97.7

# The remaining lines, values ahead:
row,ER-alpha MCF7 Sinf (%),SMILES
1,95.2,"CC1=C(c2cnn(C)c2)C(c2ccc(OCCN3CC(CF)C3)cc2)Oc2ccc(O)cc21 (stereo not drawn) [Example 42, 2-{4-[2-(3-Fluoromethyl-azetidin-1-yl)-ethoxy]-phenyl}-4-methyl-3-(1-methyl-1H-pyrazol-4-yl)-2H-chromen-6-ol]"
2,93.7,"CC(=O)N1CC=C(C2=C(C)c3cc(O)ccc3OC2c2ccc(OCCN3CC(CF)C3)cc2)C1 (stereo not drawn) [Example 20, 1-(3-(2-(4-(2-(3-(Fluoromethyl)azetidin-1-yl)ethoxy)phenyl)-6-hydroxy-4-methyl-2H-chromen-3-yl)-2,5-dihydro-1H-pyrrol-1-yl)ethanone]"
3,98.9,"CC1=C(c2cncc(S(C)(=O)=O)c2)C(c2ccc(OCCN3CC(CF)C3)cc2)Oc2ccc(O)cc21 (stereo not drawn) [Example 41, 2-{4-[2-(3-Fluoromethyl-azetidin-1-yl)-ethoxy]-phenyl}-3-(5-methanesulfonyl-pyridin-3-yl)-4-methyl-2H-chromen-6-ol]"
4,99.4,"CC1=C(c2ccncc2C)C(c2ccc(OCCN3CC(CF)C3)cc2)Oc2ccc(O)cc21 (stereo not drawn) [Example 32, 2-{4-[2-(3-Fluoromethyl-azetidin-1-yl)-ethoxy]-phenyl}-4-methyl-3-(3-methyl-pyridin-4-yl)-2H-chromen-6-ol]"
5,95.4,"CC1=C(c2cnc(N)nc2)C(c2ccc(OCCN3CC(CF)C3)cc2)Oc2ccc(O)cc21 (stereo not drawn) [Example 39, 3-(2-Amino-pyrimidin-5-yl)-2-{4-[2-(3-fluoromethyl-azetidin-1-yl)-ethoxy]-phenyl}-4-methyl-2H-chromen-6-ol]"
6,98.5,"CC1=C(c2cccnc2C)C(c2ccc(OCCN3CC(CF)C3)cc2)Oc2ccc(O)cc21 (stereo not drawn) [Example 35, 2-{4-[2-(3-Fluoromethyl-azetidin-1-yl)-ethoxy]-phenyl}-4-methyl-3-(2-methyl-pyridin-3-yl)-2H-chromen-6-ol]"
7,96.6,"CC1=C(C2=CC(=O)CC2)C(c2ccc(OCCN3CC(CF)C3)cc2)Oc2ccc(O)cc21 (stereo not drawn) [Example 45, 3-[2-[4-[2-[3-(fluoromethyl)azetidin-1-yl]ethoxy]phenyl]-6-hydroxy-4-methyl-2H-chromen-3-yl]cyclopent-2-en-1-one]"
8,97.4,"CC1=C(c2ncc(C#N)cc2C)C(c2ccc(OCCN3CC(CF)C3)cc2)Oc2ccc(O)cc21 (stereo not drawn) [Example 22, 2-{4-[2-(3-Fluoromethyl-azetidin-1-yl)-ethoxy]-phenyl}-4-methyl-3-(3-methyl-5-cyano-pyridin-2-yl)-2H-chromen-6-ol]"
9,91.8,"CC1=C(c2cncc(C#N)c2)C(c2ccc(OCCN3CC(CF)C3)cc2)Oc2ccc(O)cc21 (stereo not drawn) [Example 44, 5-(2-{4-[2-(3-Fluoromethyl-azetidin-1-yl)-ethoxy]-phenyl}-6-hydroxy-4-methyl-2H-chromen-3-yl)-nicotinonitrile]"
10,97.5,"CC1=C(c2cnccc2C)C(c2ccc(OCCN3CC(CF)C3)cc2)Oc2ccc(O)cc21 (stereo not drawn) [Example 34, 2-{4-[2-(3-Fluoromethyl-azetidin-1-yl)-ethoxy]-phenyl}-4-methyl-3-(4-methyl-pyridin-3-yl)-2H-chromen-6-ol]"
11,96.4,"CC1=C(c2ncccc2C)C(c2ccc(OCCN3CC(CF)C3)cc2)Oc2ccc(O)cc21 (stereo not drawn) [Example 33, 2-{4-[2-(3-Fluoromethyl-azetidin-1-yl)-ethoxy]-phenyl}-4-methyl-3-(3-methyl-pyridin-2-yl)-2H-chromen-6-ol]"
12,90.0,"CC1=C(C2=CCNC2)C(c2ccc(OCCN3CC(CF)C3)cc2)Oc2ccc(O)cc21 (stereo not drawn) [Example 18, 3-(2,5-dihydro-1H-pyrrol-3-yl)-2-(4-(2-(3-(fluoromethyl)azetidin-1-yl)ethoxy)phenyl)-4-methyl-2H-chromen-6-ol]"
13,90.3,"CC1=C(c2cncnc2)C(c2ccc(OCCN3CC(CF)C3)cc2)Oc2ccc(O)cc21 (stereo not drawn) [Example 38, 2-{4-[2-(3-Fluoromethyl-azetidin-1-yl)-ethoxy]-phenyl}-4-methyl-3-pyrimidin-5-yl-2H-chromen-6-ol]"
14,97.9,"CC1=C(C2=CCOC2)C(c2ccc(OCCN3CC(CF)C3)cc2)Oc2ccc(O)cc21 (stereo not drawn) [Example 30, 3-(2,5-dihydrofuran-3-yl)-2-(4-(2-(3-(fluoromethyl)azetidin-1-yl)ethoxy)phenyl)-4-methyl-2H-chromen-6-ol]"
